Test results as given in patent US8722742B2, “Chemical compounds having antiviral activity against Dengue virus and other Flaviviruses” (Centro de Ingenieria Genetica y Biotecnologia, priority 2008, dated 2014).

Tested on: DEN2 virus
Assay: Plaque inhibition assay in Vero cells
Type: cell-based, Dengue virus serotype 2
Settings: Dengue virus, 120 h
Description: Vero cells were grown in 24-wells plates until the monolayer reached approximately 90% confluence and two washes of the monolayer were done with medium MEM without SFB. Preparations of DEN2 virus equivalent to a multiplicity of infection of 0.1 were preincubated in MEM medium with and without presence of chemical compounds (100 uM) for about 1 hour at room temperature. Then, the virus/compounds mixture and virus/control mixture were incubated with monolayers for 1 hour at 37° C. After finished incubation, the cells were washed again and incubated during 5 days at 37° C. in high-density medium (MEM supplemented with non-essential amino acids, SFB 1%, carboxymethylcellulose 1%) to facilitate formation of lysis plaques. Blue Black Naphtol 0.1% in sodium acetate 0.15 mol/L was used for staining. In each experiment two replics were tested for each point and three independent determinations were done. The percentage of infection inhibition was calculated according to the following expression: […]

| Structure (SMILES) | inhibition at 100 µM |
| --- | --- |
| O=c1c2cc3c(=O)n(CCCn4ccnc4)c(=O)c3cc2c(=O)n1CCCn1ccnc1 | 0 to 30% |
| O=C(CC1C(=O)c2ccccc2C1=O)Oc1ccc(-c2ccc(OC(=O)CN3C(=O)c4ccccc4C3=O)cc2)cc1 | 0 to 30% |
| O=S(=O)(NCc1ccccc1)c1ccc(S(=O)(=O)NC2CCCCC2)cc1 [C-SIJ01002] | 70 to 100% |
| O=S(=O)(NCc1ccccc1)c1ccc(S(=O)(=O)NC2CC2)cc1 [C-SIJ01003] | 30 to 100% |
| O=S(=O)(NCc1ccc2c(c1)OCO2)c1ccc(S(=O)(=O)NC2CCCCC2)cc1 [C-SIJ01006] | 70 to 100% |
| O=S(=O)(NCc1ccc2c(c1)OCO2)c1ccc(S(=O)(=O)NC2CC2)cc1 [C-SIJ01008] | 30 to 100% |
| O=S(=O)(NCCC1=CCCCC1)c1ccc(S(=O)(=O)NCc2ccc3c(c2)OCO3)cc1 [C-SIJ01009] | 70 to 100% |
| O=S(=O)(NCc1ccco1)c1ccc(S(=O)(=O)NC2CCCCC2)cc1 [C-SIJ01020] | 70 to 100% |
| CC(=O)N1CCN(S(=O)(=O)c2ccc(S(=O)(=O)NC3CCCCC3)cc2)CC1 [C-SIJ01023] | 70 to 100% |
| CCCCNS(=O)(=O)c1ccc(S(=O)(=O)N2CCN(C(C)=O)CC2)cc1 [C-SIJ01026] | 30 to 100% |
| O=S(=O)(NCCc1ccccc1)c1ccc(S(=O)(=O)N2CCCCC2)cc1 [C-SIJ01031] | 70 to 100% |
| O=S(=O)(NCc1ccc(F)cc1)c1ccc(S(=O)(=O)N2CCCCC2)cc1 [C-SIJ01033] | 30 to 100% |
| O=S(=O)(NCC1CC1)c1ccc(S(=O)(=O)N2CCCCC2)cc1 [C-SIJ01034] | 30 to 100% |
| O=S(=O)(NC(c1ccccc1)c1ccccc1)c1ccc(S(=O)(=O)N2CCCCC2)cc1 [C-SIJ01039] | 70 to 100% |
| O=S(=O)(NCCO)c1ccc(S(=O)(=O)N2CCCCC2)cc1 [C-SIJ01042] | 70 to 100% |
| CC(C)CNS(=O)(=O)c1ccc(S(=O)(=O)N2C(C)CCCC2C)cc1 (stereo not shown) [C-SIJ01045] | 30 to 100% |
| CC1CCCC(C)N1S(=O)(=O)c1ccc(S(=O)(=O)NCCc2ccncc2)cc1 (stereo not shown) [C-SIJ01047] | 70 to 100% |
| CC1CCCC(C)N1S(=O)(=O)c1ccc(S(N)(=O)=O)cc1 (stereo not shown) [C-SIJ01051] | 30 to 100% |
| COC(CNS(=O)(=O)c1ccc(S(=O)(=O)N2CCOCC2)cc1)OC [C-SIJ01056] | 70 to 100% |
| CC(C)(C)C(=O)CNS(=O)(=O)c1ccc(S(=O)(=O)N2CCOCC2)cc1 [C-SIJ01062] | 70 to 100% |
| O=S(=O)(Nc1ccccc1OC(F)F)c1ccc(S(=O)(=O)N2CCOCC2)cc1 [C-SIJ01066] | 70 to 100% |
| O=C(CN1C(=O)c2ccccc2S1(=O)=O)Nc1ccc(S(=O)(=O)N2CCCCCC2)cc1 [C-SIJ04078] | 70 to 100% |
| CCN(Cc1ccccc1)S(=O)(=O)c1ccc(S(=O)(=O)N2CCOCC2)cc1 [C-SIJ06097] | 70 to 100% |
| NS(=O)(=O)c1ccc(S(=O)(=O)N2CCOCC2)cc1 [C-SIJ06099] | 30 to 100% |
| O=CN1CCN(S(=O)(=O)c2ccc(S(=O)(=O)N3CCOCC3)cc2)CC1 [C-SIJ06102] | 30 to 100% |
| CS(=O)(=O)N1CCN(S(=O)(=O)c2ccc(S(=O)(=O)N3CCOCC3)cc2)CC1 [C-SIJ06103] | 70 to 100% |
| O=C(O)[C@H]1CCCN(S(=O)(=O)c2ccc(S(=O)(=O)N3CCCCC3)cc2)C1 [C-SIJ06111] | 70 to 100% |
| COc1ccc(/C=N/NC(=O)Cc2ccc([N+](=O)[O-])cc2)cc1OC [C-SIJ12143] | 70 to 100% |
